The text below walks through data of PubChem BioAssay (NCI).

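Cultured in 96-well plates, cells were exposed to test compound for 48 hours across five concentrations. At the GI50, growth is halved. TGI: total growth inhibition.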 A value given as a limit tells only on which side of the number the result lay.

Common to all, as to experiment: DTP human tumour cell line panel, 48 h
The test system of experiment [1] is 786-0 renal.
Experiment [2] deals with BT-549 breast.
For experiment [3], the system named is HCT-116 colon.
Experiment [4] deals with MCF7 breast.
For experiment [5], the system named is OVCAR-4 ovarian.
In experiment [6] the test system is PC-3 prostate.
The subject of experiment [7] is SF-295 CNS.
Experiment [8] concerns SK-MEL-2 melanoma.
Experiment [9] has as its system SK-MEL-5 melanoma.
Experiment [10] deals with SNB-19 CNS.

Broadly, the TGI is the concentration at which net growth stops. The low end stands for greater sensitivity of the cells, the high end for lower sensitivity of the cells. In the case of `O=C1c2ccccc2CN1c1ccc(O)cc1`, the TGI in experiment [1], in experiment [2], in experiment [3], in experiment [4], in experiment [5] and in experiment [6] was over 100 µM in each case. Also, the TGI in experiment [7], in [8], in experiment [9] and in [10] was over 100 µM each time.
On to `CC(=O)N/N=C1/NN(C(C)=O)C2(S1)C(=O)Nc1ccc(Br)cc12` (configuration not stated), for which the TGI in [1], in experiment [2], in experiment [3], in experiment [4], in experiment [5] and in experiment [6] was over 100 µM each time. The TGI in experiment [7], in experiment [8], in experiment [9] and in [10] was over 100 µM throughout.
As to `COc1ccc(N[C@H](CSc2ccc(C)cc2)c2ccc(F)cc2)cc1`, the TGI in experiment [1], in [2], in [3], in experiment [4], in experiment [5] and in experiment [6] was over 100 µM throughout. Besides, the concentration for total growth inhibition (TGI) in experiment [7], in [8], in [9] and in experiment [10] was over 100 µM throughout.
As to `O=c1cc(/C=C/c2ccc(O)c(O)c2)oc(/C=C/c2ccc(O)c(O)c2)c1`, the TGI in experiment [1] came to 17.7 µM; in experiment [2], 15.2 µM; in [3], 15.5 µM; in [4] it was 30.8 µM; in [5] it was 11.7 µM; in experiment [6] it was 17.6 µM. Also, the TGI was 22.7 µM in [7], 9.97 µM in experiment [8], 13.2 µM in [9] and 18.2 µM in [10].
For `CC(=O)OC[C@]1(C(=O)C(O)c2ccoc2)[C@H](C)CC[C@@]23COC(=O)C2=CCC[C@@H]31` (some centres not stated), the TGI in experiment [1], in experiment [2], in [3], in experiment [4], in [5] and in [6] was over 10 µM throughout. Besides, the concentration for total growth inhibition (TGI) in experiment [7], in experiment [8], in experiment [9] and in experiment [10] was over 10 µM in each case.
As to `CCOC1CC(=O)c2c(Br)sc(Br)c21` (configuration not stated), the TGI was found to be 94.7 µM in experiment [1]; 66.1 µM in [2]; 38.4 µM in [3]; 40.5 µM in experiment [4]; 47.2 µM in experiment [6]; 77.4 µM in [7]. Moreover, the TGI in [8] is 37.2 µM; in experiment [9] it was over 100 µM; in experiment [10], 51.9 µM.
Consider `COc1cc2c(cc1OCCCCOc1cc(-c3ccc(F)cc3)nc(C)n1)N=C[C@@H]1CCCN1C2=O`, for which the TGI in experiment [1] was 6.94 µM; in experiment [2], 2.28 µM; in [3], 8.59 µM; in experiment [4] it was 15.2 µM; in experiment [5], 2.3 µM; in [6], 6.07 µM. The concentration for total growth inhibition (TGI) worked out at 2.26 µM in experiment [7], 2.31 µM in [8], 1.44 µM in experiment [9] and 4.75 µM in experiment [10].
Regarding `O=C1C(c2c(O)[nH]c3ccc(S(=O)(=O)O)cc23)=Nc2ccccc21`, the TGI in [1], in [2], in [3], in experiment [4], in experiment [5] and in [6] was over 100 µM throughout. The TGI in [7], in [8], in experiment [9] and in experiment [10] was over 100 µM throughout.
For `CC(=O)NS(=O)(=O)c1ccc(NC(=O)c2c3ccccc3nc3ccccc23)cc1`, the total growth inhibition concentration (TGI) in [1], in [2], in experiment [3], in [4], in experiment [5] and in [6] was over 100 µM throughout. Further, the TGI in experiment [7], in experiment [8], in [9] and in experiment [10] was over 100 µM in each case.
The GI50 is the concentration at which growth is held to half of that of the control. Turning to `COc1ccc2c(c1)O/C(=C\c1cccc(OCC(=O)Nc3nc4c(s3)CCCC4)c1)C2=O`, the TGI in experiment [1] was over 19.9 µM; in experiment [2] it was over 100 µM; in [3], over 100 µM; in experiment [4] it was over 100 µM; in experiment [5] it was over 100 µM; in [6], over 60.1 µM. Also, the TGI in experiment [7] is over 43.2 µM; in experiment [8], over 30.6 µM; in experiment [9], over 100 µM; in experiment [10], over 100 µM. The GI50 is over 51.1 µM in experiment [2]; over 43.8 µM in [3]; 12.8 µM in experiment [4]; over 100 µM in [5]; 12.7 µM in experiment [6]; 12.5 µM in experiment [8]. The GI50 in [9] was over 71.8 µM; in experiment [10], 44.6 µM.
With `CC(C)=CCc1c2c(c3occ(-c4ccc(O)c(O)c4)c(=O)c3c1O)C=CC(C)(C)O2`, the TGI in experiment [1] was determined as 2.88 µM; in experiment [2], 13.8 µM; in experiment [3] it was 4.29 µM; in experiment [4] it was 11.4 µM; in experiment [5], 3.39 µM; in [6] it was 3.45 µM. Besides, the TGI in experiment [7] worked out at 12.8 µM; in experiment [8], 11.1 µM; in experiment [9], 7.72 µM; in experiment [10], 5.02 µM.
As to `CC1(C)C(c2ccccc2)=[N+]([O-])C(C)(C)N1O`, the TGI in [1], in experiment [2], in experiment [3], in experiment [4], in experiment [5] and in experiment [6] was over 10 µM in each case. The TGI in [7], in experiment [8], in [9] and in experiment [10] was over 10 µM throughout.
In the case of `CN(C)NC(=S)Nc1ccccc1Br`, the concentration for total growth inhibition (TGI) in experiment [1], in experiment [2], in [3], in experiment [4], in experiment [5] and in experiment [6] was over 100 µM throughout. The TGI in [7], in [8], in [9] and in experiment [10] was over 100 µM in each case.
